This assay addresses T1, PAR-2 receptor (Homo sapiens, UniProt P55085).
T1 construct: host or cells: engineered cell line from DiscoveRx
T1 sequence (P55085 26-397): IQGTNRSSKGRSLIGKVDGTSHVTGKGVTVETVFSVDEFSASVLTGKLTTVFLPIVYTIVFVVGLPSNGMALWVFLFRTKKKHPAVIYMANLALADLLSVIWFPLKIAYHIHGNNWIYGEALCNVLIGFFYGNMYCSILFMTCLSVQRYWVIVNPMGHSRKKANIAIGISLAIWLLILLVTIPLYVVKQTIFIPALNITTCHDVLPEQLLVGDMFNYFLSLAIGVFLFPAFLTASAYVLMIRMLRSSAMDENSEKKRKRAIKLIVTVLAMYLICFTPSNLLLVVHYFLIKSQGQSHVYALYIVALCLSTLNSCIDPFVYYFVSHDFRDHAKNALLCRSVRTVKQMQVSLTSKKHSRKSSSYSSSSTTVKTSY
Kind of assay: PAR-2 Inhibition Assay (beta arrestin recruitment / beta galactosidase complementation, luminescence; PAR2 activation by trypsin). Type of assay: cell-based. The settings on record: for PAR2 inhibitory effect (summary in words): over the dilution factors tested; for percent inhibition of PAR2 activation: activation by trypsin, triplicate. An excerpt: PAR-2 Inhibition Assay - The assay principle relies on the recruitment of beta arrestin to the activated PAR-2 receptor resulting in the formation of an active beta galactosidase enzyme which can cleave a substrate causing a luminescent signal that can be quantitated. PAR-2 can be activated by either adding trypsin and also by adding SLIGRL peptide.
Cells expressing PAR-2 receptor coupled to the alpha fragment of beta galactosidase and expressing beta arrestin coupled to the beta fragment of beta galactosidase are obtained from DiscoveRx Corp., Freemont, CA. Cells are propagated in a culture medium of Dulbeccos Modified Eagle Medium supplemented with 10% heat-inactivated fetal bovine serum, 500 unit/mL penicillin, 500 ug/mL streptomycin, 800 ug/mL gentimicin, and 300 ug/mL hygromycin in T75 or T150 culture flasks (all media components available from Invitrogen Corp., Carlsbad, CA) in a CO2 incubator at 37°C. When cells reach approximately 80% confluency, the cells are detached from the flask using Cell Dissociation Buffer (available from Invitrogen Corp., Carlsbad, CA as item number 13151-014). The cells are counted using a hemocytometer and plated into 384 well plates at 10000 cells/well in 20 uL/well of Opti-MEM® media (available from Invitrogen Corp., Carlsbad, CA). The cells are cultured for 24 -48 hours.
To assay potential inhibitors of PAR2 activation by trypsin, each well is treated with 1 uL of the test material in water. Each test material is run in triplicate. The cells are incubated for 30 minutes in the CO2 incubator, after which 1 uL of trypsin is added (approximate 0.1 ug/uL). The cells are incubated for an hour in the CO2 incubator after which the cell lysis substrate solution (11 uL/well) is added. The lysis substrate solution is available in the PathHunter™ Detection Kit (catalogue #93-0001) from DiscoveRx Corp., Freemont, CA, in which the components are mixed in the following ratio: • Assay Buffer: Substrate 1: Substrate 2 = 19:5:1 The plates are briefly centrifuged (approximately 5 minutes) at 800 X g to remove bubbles and are then incubated at room temperature for 1 hr. Luminescence is read for each well on an Envision™ 2101 Multilabel Reader (available form PerkinElmer, Inc., Boston, MA). The range is determined by wells with solvent control + trypsin (high control) and by wells with solvent control and no trypsin (low control). The percent PAR2 inhibition of each treatment is calculated by the following formula of the luminescence signals: (1-([treatment luminescence-low control luminescence])/([high control luminescence-low control luminescence])) × 100 [formula] Statistics are done in Excel by Microsoft, Redmond, WA, using the T-test function, single tail with uneven distribution functions.
Using the assay outlined above, various concentrations and combinations of Laminaria Saccharina extract (e.g., Phlorogine), N-acyl Amino Acid (e.g., Sepiwhite), and vitamin B3 (e.g., niacinamide) were tested. Stock compositions of 1% Phlorogine (i.e., composition comprises approximately 0.025% - 0.01% Laminaria Saccharina extract), 1% Sepiwhite, 5% niacinamide, and combinations thereof are prepared and diluted prior to use. Test runs are performed at dilution factors of 0.045, 0.023, and 0.006. For clarity purposes, the 1% Sepiwhite composition diluted at a factor of 0.045 yields a test compositing comprising 0.045% Sepiwhite.
On the technique in general: Activated receptors often draw arrestin, which recruitment assays turn into a signal.

The mark [1] stands for this setting: stock composition diluted at dilution factor 0.006.
[2] abbreviates: stock composition diluted at dilution factor 0.023.
The mark [3] stands for this setting: stock composition diluted at dilution factor 0.045 (e.g. 0.045% Sepiwhite), 100% = control without trypsin.

On to `C=CCCCCCCCCC(=O)N[C@@H](Cc1ccccc1)C(=O)O` [1% Sepiwhite, N-undecylenoyl-L-phenylalanine], for which the “PAR2 inhibitory effect (summary in words)” value is listed as “inhibitory effect which is pronounced at higher dilutions”. Further, under setting [1], the “percent inhibition of PAR2 activation” value was determined as 14%. Moreover, the “percent inhibition of PAR2 activation” value under setting [2] is recorded as 35%. Besides, under setting [3], the “percent inhibition of PAR2 activation” value is recorded as 53%.

In the case of `NC(=O)c1cccnc1` [5% Niacinamide, niacinamide], the “PAR2 inhibitory effect (summary in words)” value was “inhibitory effect which is pronounced at higher dilutions”. In addition, under setting [1], the “percent inhibition of PAR2 activation” value stood at 5%. The “percent inhibition of PAR2 activation” value under setting [2] is 14%. In addition, under setting [3], the “percent inhibition of PAR2 activation” value stood at 20%.

Values taken from EP2442784B1, “COMPOSITIONS AND METHODS FOR INHIBITING PAR2 ACTIVATION OF KERATINOCYTES” (THE PROCTER & GAMBLE COMPANY, priority 2010, dated 2012).
